What was measured:
Type in all cases: cell-based, human
MV4-11 cells [1] = experiment: Coculture of GILT and exogenous MIF on MV4-11 (sequential or simultaneous); settings: MV4-11, sequential coculture 5 days, 80 nM GILT only
Protocol: To investigate whether MIF/CXCLs-CXCR2 pathways could be activated by TKI-treatment in viable blasts to support their survival and continuous proliferation, a serial coculture was conducted to examine whether the supplementation of exogenous MIF at early (simultaneous) or late stage (sequential) of TKI treatment could rescue the GIL-treated MV4-11 in vitro. CD44, a multifunctional cell surface adhesion receptor, was identified as a key regulator of quiescent AML leukemic stem cells (LSCs) which are highly microenvironment dependent. […] In the simultaneous coculture, another group of CD44High^+ cells was also found which included both Ki67^+ and Ki67^− subsets (FIG. 8F). This group of CD44High^+ cells could be visualized in the flow cytometry histogram (FIG. 8G). […] CD44high^+ stem-like cells have been previously found to be highly tumorigenic, treatment-resistant and responsible for metastatic progression in breast cancer.

MV4-11 blasts = experiment: GILT combined with MIF inhibitor or CXCR2 inhibitor on MV4-11 blasts in vitro (FACS); settings: 80 nM GILT, 50 uM SB225002, 3 days
Protocol: Whether targeting the MIF-CXCR2 signaling pathway would effectively treat AML blasts were investigated. First, the combination of GILT with ribosomal protein S19 (RPS19) on MV4-11 blasts was tested in vitro. RPS19, a MIF inhibitor, has been reported to suppress cisplatin-activated MIF-CD74-NFκB signaling pathway in acute kidney injury. […] The combination of 80 nM GILT with 50 uM SB225002, a CXCR2-inhibitor (CXCR2-I) on MV4-11 blasts in vitro were examined. […] The anti-leukemic effect of combining GILT with CXCR2-I on primary BMMNC ex vivo were examined. […] There may be alternative cytokine pathways compensating for the defect of MIF-CXCR2 pathways.
For MIF in vitro experiments, different doses of MIF were added to 1 ml of 1×10^6 MV4-11 cells or RAW264.7 cells for each experimental group in 24-well plates. Two days after the one dose treatment, cells were then collected for either analyses by FACS and qPCR. As combination agents to treat blasts in vitro or ex vivo, one dose of 80 nM GILT with one dose of different inhibitors were added to 1 ml of 1×10^6 MV4-11 cells or 1 ml of 0.5-1×10^6 primary AML BMMNC for each experimental group in 24-well plates. Dose-dependent experiments of CXCR2 inhibitor and NFκB inhibitor with or without 80 nM GILT were performed. […] Three days after the one dose treatment, cells were then collected for either analyses by FACS and qPCR.
(§1) Flow Cytometry (FACS). Cells were harvested and examined for the expression of cell surface biomarkers (CD) and intracellular proteins by multichromatic FACS as previously described. About 1×10^4˜10^6 cells in 100 μl FACS buffer (PBS containing 1% FBS and 0.05% sodium azide) were stained with various fluorescence-conjugated antibodies specific for the desired cell surface proteins at 4° C. for 30 min. The surface-stained cells were then fixed and permeabilized using the appropriate reagents (e.g. the BD Pharmingen Cytofix/Cytoperm buffer) and stained with different fluorescence-conjugated antibodies specific for the desired intracellular proteins at 4° C. for 2 hours in the permeabilizing buffer (e.g. the BD Perm/Wash buffer). Concentrations of the Abs were used per the manufacturers' recommendations. Finally, the cells were washed twice in the permeabilizing buffer and twice in the FACS buffer before being analyzed on the BD FACSAria II. Data was analyzed using the FlowJo software (Tree Star Inc., Ashland, OR).

MV4-11 cells [2] = experiment: FACS of TKI-treated MV4-11 cells in vitro (viable blasts, Ki67, pBAD); settings: 3 days after one dose of 80 nM TKI; vs non-treatment controls
Protocol: (§2) The AML cells were analyzed at different time points after exposure to TKI (3 days, 10 days, 20 days, and 28 days). […] After 3 days, FACS of the surface markers and intracellular proteins, including CD14, CD33, CD44, and Ki67, were performed. FIGS. 1A-1E depicts therapeutic effect of different TKIs on MV4-11 and MOLM-14 cells in vitro (N=6). […] The circles indicate the group of viable blasts located in a FACS plot and green arrows indicate the dying tendency of blasts which will become positive for viability dye during the next few days. FIGS. 1C and 1D are graphical representations of the cumulative FACS percentage data of viable MV4-11 and MOLM-14 cells. *P<0.05. […]
as §1, with “Cells were harvested and examined for the expression of cell surface biomarkers (CD) and intracellular proteins by multichromatic FACS as previously described.” left out, “Concentrations of the Abs were used per the manufacturers' recommendations.” left out, “Data was analyzed using the FlowJo software (Tree Star Inc., Ashland, OR).” left out

MOLM-14 cells = experiment: FACS of TKI-treated MOLM-14 cells in vitro (viable blasts, pBAD); settings: 3 days after one dose of 80 nM TKI; vs non-treatment controls
Protocol: as §2
as §1, with “Cells were harvested and examined for the expression of cell surface biomarkers (CD) and intracellular proteins by multichromatic FACS as previously described.” left out, “Concentrations of the Abs were used per the manufacturers' recommendations.” left out, “Data was analyzed using the FlowJo software (Tree Star Inc., Ashland, OR).” left out

| SMILES | percentage of viable quiescent CD44+ cell population (MV4-11 cells [1]) [%] | percentage of viable CD44+ MV4-11 blasts (MV4-11 blasts) [%] | percentage of Ki67+CD44+ blasts (MV4-11 blasts; MV4-11) [%] | viable MV4-11 blasts (FACS) (MV4-11 cells [2]) | viable MOLM-14 blasts (FACS) (MOLM-14 cells) |
| --- | --- | --- | --- | --- | --- |
| CCc1nc(C(N)=O)c(Nc2ccc(N3CCC(N4CCN(C)CC4)CC3)c(OC)c2)nc1NC1CCOCC1 [GILT, Gilteritinib] | 17.7 | 12.2 | 12.2 |  |  |
| CC(C)(C)c1cc(NC(=O)Nc2ccc(-c3cn4c(n3)sc3cc(OCCN5CCOCC5)ccc34)cc2)no1 [QUIZ, Quizartinib] |  |  |  | more effective | more effective |

Source: patent publication US20250123282A1, “METHODS FOR EVALUATION AND TREATMENT OF TYROSINE KINASE INHIBITOR (TKI)-RESISTANT ACUTE MYELOID LEUKEMIA” (LOMA LINDA UNIVERSITY, priority 2021, published 2025)
